Experimental data as given in PubChem BioAssay AID248 (DTP/NCI, 2004).
Where “and” joins values, the source holds several entries; their conditions need not be identical. Identical values can stand only once. Inconclusive results and toxic doses are left out. Rule as the data show it: active = T/C of 150% or more; inactive = T/C below 125%.

System: L1210 leukemia ip in BDF1 mice, survival T/C
Assay: NCI In Vivo Anticancer Drug Screen. Data for tumor model L1210 Leukemia (intraperitoneal) in B6D2F1 (BDF1) mice
Details: endpoint: mean survival time, higher = longer survival
In short: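 Ratio derived from survival: compound-dosed mice over vehicle-dosed mice, all bearing a transplantable tumor.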

[1] = dose: 100.0 mg/kg/injection, schedule: Q04DX003 (ip), vehicle: Klucel (hydroxypropylcellulose) (HPC)
[2] = dose: 200.0 mg/kg/injection, schedule: Q04DX003 (ip), vehicle: Klucel (hydroxypropylcellulose) (HPC)
[3] = dose: 400.0 mg/kg/injection, schedule: Q04DX003 (ip), vehicle: Klucel (hydroxypropylcellulose) (HPC)
[4] = dose: 100.0 mg/kg/injection, schedule: Q01DX009 (ip), vehicle: saline with Tween-80
[5] = dose: 200.0 mg/kg/injection, schedule: Q01DX009 (ip), vehicle: saline with Tween-80
[6] = dose: 400.0 mg/kg/injection, schedule: Q01DX009 (ip), vehicle: saline with Tween-80
[7] = dose: 25.0 mg/kg/injection, schedule: Q04DX002 (ip), vehicle: Klucel (hydroxypropylcellulose) (HPC)
[8] = dose: 50.0 mg/kg/injection, schedule: Q04DX002 (ip), vehicle: Klucel (hydroxypropylcellulose) (HPC)
[9] = dose: 100.0 mg/kg/injection, schedule: Q01DX001 (ip), vehicle: saline
[10] = dose: 200.0 mg/kg/injection, schedule: Q01DX001 (ip), vehicle: saline
[11] = dose: 400.0 mg/kg/injection, schedule: Q01DX001 (ip), vehicle: saline
[12] = dose: 50.0 mg/kg/injection, schedule: Q01DX001 (ip), vehicle: saline
[13] = dose: 100.0 mg/kg/injection, schedule: Q04DX003 (ip), vehicle: saline with Tween-80
[14] = dose: 200.0 mg/kg/injection, schedule: Q04DX003 (ip), vehicle: saline with Tween-80
[15] = dose: 400.0 mg/kg/injection, schedule: Q04DX003 (ip), vehicle: saline with Tween-80
[16] = dose: 100.0 mg/kg/injection, schedule: Q04DX003 (ip), vehicle: saline
[17] = dose: 200.0 mg/kg/injection, schedule: Q04DX003 (ip), vehicle: saline
[18] = dose: 100.0 mg/kg/injection, schedule: Q01DX001 (ip), vehicle: Klucel (hydroxypropylcellulose) (HPC)
[19] = dose: 200.0 mg/kg/injection, schedule: Q01DX001 (ip), vehicle: Klucel (hydroxypropylcellulose) (HPC)

Measured: T/C

FC(F)(F)C(F)(F)C1=NS1(C(F)(C(F)(F)F)C(F)(F)F)C(F)(C(F)(F)F)C(F)(F)F
inactive: dose: 100.0 mg/kg/injection, schedule: Q01DX001 (ip), vehicle: acetone 94 % of control | dose: 200.0 mg/kg/injection, schedule: Q01DX001 (ip), vehicle: acetone 103 % of control | dose: 400.0 mg/kg/injection, schedule: Q01DX001 (ip), vehicle: acetone 101 % of control

CCOC(=O)Cn1c(=O)c2ccccc2c2cc([N+](=O)[O-])ccc21
inactive: [1] 95 % of control | [2] 97 % of control | [3] 86 % of control

O=C(Nc1ccc(Cl)cc1C(F)(F)F)Oc1ccc(OCc2ccccc2)cc1
inactive: [4] 94 % of control | [5] 100 % of control | [6] 92 % of control

C[CH2][Pb]([CH2]C)([CH2]C)[N](C#N)C(=N)N
inactive: [7] 97 % of control | [8] 101 % of control

CCCCCC(O)C(O)CC(O)C(O)CCCCCCCC(=O)O (stereo not given)
inactive: [9] 89 % of control | [10] 105 % of control | [11] 96 % of control

COc1ccc(/C=N\NC(=O)CCCC(=O)N/N=C/c2ccc(OC)c(O)c2)cc1O
inactive: [12] 100 % of control | [9] 100 % of control | [10] 100 % of control | [11] 103 % of control

COc1ccc(OC)c2c(C(C)=O)c[nH]c12
inactive: dose: 12.5 mg/kg/injection, schedule: Q04DX002 (ip), vehicle: Klucel (hydroxypropylcellulose) (HPC) 118 % of control | [7] 112 % of control | [8] 93 % of control

O/N=C1/CCCC/C1=C/c1ccc(Cl)cc1
inactive: [4] 104 % of control | [5] 111 % of control | [6] 88 % of control

O=C(O)C(O)(c1ccccc1)C(O)c1ccccc1 (stereo not given)
inactive: [4] 113 % of control | [13] 100 % of control | [5] 97 % of control | [14] 100 % of control | [6] 98 % of control | [15] 95 % of control

O=C(C[n+]1ccc(-c2ccccc2)cc1)c1ccccc1
inactive: [16] 109 % of control | [17] 105 % of control

Oc1ccc(NC(=S)Nc2ccccc2)cc1
inactive: [4] 93 % of control | [5] 88 % of control | [6] 92 % of control

CCOC(=O)c1ccc(NC(=O)N(C)N=O)cc1
inactive: dose: 75.0 mg/kg/injection, schedule: Q01DX001 (ip), vehicle: carboxymethylcellulose (CMC) 121 % of control

COc1ccc(-n2c(=O)c(N=Nc3ccc(Cl)cc3)c(O)n(-c3ccccc3Cl)c2=S)cc1
inactive: dose: 50.0 mg/kg/injection, schedule: Q01DX001 (ip), vehicle: Klucel (hydroxypropylcellulose) (HPC) 106 % of control | [18] 97 % of control | [19] 95 % of control

CCC(=Nc1ccccc1)Nc1ccccc1
inactive: dose: 100.0 mg/kg/injection, schedule: Q04DX002 (ip), vehicle: Klucel (hydroxypropylcellulose) (HPC) 106 % of control | dose: 200.0 mg/kg/injection, schedule: Q04DX002 (ip), vehicle: Klucel (hydroxypropylcellulose) (HPC) 106 % of control | dose: 400.0 mg/kg/injection, schedule: Q04DX002 (ip), vehicle: Klucel (hydroxypropylcellulose) (HPC) 109 % of control

c1ccc(SCN2CCN(CSc3ccccc3)CC2)cc1
inactive: [16] 101 % of control | [17] 101 % of control | dose: 400.0 mg/kg/injection, schedule: Q04DX003 (ip), vehicle: saline 98 % of control

CC(CO)(CO)N=Cc1ccccc1O.CC(CO)(CO)N=Cc1ccccc1O.[Co]
inactive: [12] 108 % of control | [9] 97 % of control | [10] 106 % of control

CC(C)CCn1ccc(N)nc1=O
inactive: dose: 25.0 mg/kg/injection, schedule: Q01DX001 (ip), vehicle: saline with Tween-80 97 % of control | dose: 50.0 mg/kg/injection, schedule: Q01DX001 (ip), vehicle: saline with Tween-80 101 % of control | dose: 100.0 mg/kg/injection, schedule: Q01DX001 (ip), vehicle: saline with Tween-80 90 % of control

Cc1nnc(NS(=O)(=O)c2ccc(N=Nc3c(N)[nH]c(=S)[nH]c3=O)cc2)s1
inactive: [9] 100 % of control | [10] 100 % of control | [11] 100 % of control

CN(C)c1ccc(-c2nc3ccccn3c2N)cc1
inactive: dose: 3.13 mg/kg/injection, schedule: Q01DX009 (ip), vehicle: saline 95 % of control | dose: 6.25 mg/kg/injection, schedule: Q01DX009 (ip), vehicle: saline 92 % of control and 101 % of control | dose: 12.5 mg/kg/injection, schedule: Q01DX009 (ip), vehicle: saline 100 % of control and 114 % of control

CCC(Cl)COP(=O)(OCC(Cl)CC)O/C(C)=C(\C)OP(=S)(OCC(Cl)CC)OCC(Cl)CC (stereo not given)
inactive: dose: 100.0 mg/kg/injection, schedule: Q04DX002 (sc), vehicle: olive oil, sesame oil, peanut oil 108 % of control | dose: 200.0 mg/kg/injection, schedule: Q04DX002 (sc), vehicle: olive oil, sesame oil, peanut oil 102 % of control | dose: 400.0 mg/kg/injection, schedule: Q04DX002 (sc), vehicle: olive oil, sesame oil, peanut oil 102 % of control

CCOc1ccc(-n2c(O)c(N=Nc3ccccc3C)c(=O)n(-c3ccc(OC)cc3)c2=S)cc1
inactive: [18] 94 % of control | [19] 95 % of control | dose: 400.0 mg/kg/injection, schedule: Q01DX001 (ip), vehicle: Klucel (hydroxypropylcellulose) (HPC) 89 % of control

CC(=O)N(N=O)c1ccc([N+](=O)[O-])cc1Cl
inactive: [12] 102 % of control | [9] 102 % of control | [10] 100 % of control | [11] 102 % of control

Cc1cc(=O)c2cc(Cc3ccc(N)cc3)ccc2[nH]1
inactive: [9] 101 % of control | [10] 108 % of control

CC=NC(C[S-])C(=O)O.CC=NC(C[S-])C(=O)O.[Fe+2] (stereo not given)
inactive: [4] 92 % of control | [13] 94 % of control | [5] 91 % of control | [14] 93 % of control | [6] 87 % of control | [15] 88 % of control

Cc1nc(N)c2c(n1)C(C)N(C(=O)c1ccccc1)C2 (stereo not given)
inactive: dose: 100.0 mg/kg/injection, schedule: Q01DX001 (ip), vehicle: carboxymethylcellulose (CMC) 103 % of control | dose: 200.0 mg/kg/injection, schedule: Q01DX001 (ip), vehicle: carboxymethylcellulose (CMC) 100 % of control | dose: 400.0 mg/kg/injection, schedule: Q01DX001 (ip), vehicle: carboxymethylcellulose (CMC) 97 % of control

O=C(O)C(Cc1ccccc1)C(=O)O.[NH2-].[NH2-].[Pt+2]
inactive: dose: 25.0 mg/kg/injection, schedule: Q04DX003 (ip), vehicle: Klucel (hydroxypropylcellulose) (HPC) 102 % of control | dose: 50.0 mg/kg/injection, schedule: Q04DX003 (ip), vehicle: Klucel (hydroxypropylcellulose) (HPC) 98 % of control | [1] 119 % of control | [2] 104 % of control

CSc1ncnc2[nH]ncc12
inactive: dose: 25.0 mg/kg/injection, schedule: Q01DX009 (ip), vehicle: saline with Tween-80 108 % of control | dose: 25.0 mg/kg/injection, schedule: Q04DX003 (ip), vehicle: saline with Tween-80 105 % of control | dose: 50.0 mg/kg/injection, schedule: Q01DX009 (ip), vehicle: saline with Tween-80 102 % of control | dose: 50.0 mg/kg/injection, schedule: Q04DX003 (ip), vehicle: saline with Tween-80 103 % of control | [13] 96 % of control and 106 % of control

CC1(C)CC(Br)C(=O)c2ccccc21 (stereo not given)
inactive: [1] 100 % of control | [2] 105 % of control | [3] 97 % of control
